Laboratory results published in patent publication US11136325B2, “Pyrrolopyrimidine and pyrrolopyridine derivatives” (GALAPAGOS NV, priority 2017, dated 2021).

The compounds below were run against Full length human ASK1 protein (Homo sapiens (Human), UniProt Q99683) (assay: ASK1 biochemical assay (AlphaScreen technology, MKK7 phosphorylation)). Conditions: 150 μM ATP, 400 nM MKK7, 0.8 nM ASK1.
Full length human ASK1 protein, sequence (Q99683 whole entry): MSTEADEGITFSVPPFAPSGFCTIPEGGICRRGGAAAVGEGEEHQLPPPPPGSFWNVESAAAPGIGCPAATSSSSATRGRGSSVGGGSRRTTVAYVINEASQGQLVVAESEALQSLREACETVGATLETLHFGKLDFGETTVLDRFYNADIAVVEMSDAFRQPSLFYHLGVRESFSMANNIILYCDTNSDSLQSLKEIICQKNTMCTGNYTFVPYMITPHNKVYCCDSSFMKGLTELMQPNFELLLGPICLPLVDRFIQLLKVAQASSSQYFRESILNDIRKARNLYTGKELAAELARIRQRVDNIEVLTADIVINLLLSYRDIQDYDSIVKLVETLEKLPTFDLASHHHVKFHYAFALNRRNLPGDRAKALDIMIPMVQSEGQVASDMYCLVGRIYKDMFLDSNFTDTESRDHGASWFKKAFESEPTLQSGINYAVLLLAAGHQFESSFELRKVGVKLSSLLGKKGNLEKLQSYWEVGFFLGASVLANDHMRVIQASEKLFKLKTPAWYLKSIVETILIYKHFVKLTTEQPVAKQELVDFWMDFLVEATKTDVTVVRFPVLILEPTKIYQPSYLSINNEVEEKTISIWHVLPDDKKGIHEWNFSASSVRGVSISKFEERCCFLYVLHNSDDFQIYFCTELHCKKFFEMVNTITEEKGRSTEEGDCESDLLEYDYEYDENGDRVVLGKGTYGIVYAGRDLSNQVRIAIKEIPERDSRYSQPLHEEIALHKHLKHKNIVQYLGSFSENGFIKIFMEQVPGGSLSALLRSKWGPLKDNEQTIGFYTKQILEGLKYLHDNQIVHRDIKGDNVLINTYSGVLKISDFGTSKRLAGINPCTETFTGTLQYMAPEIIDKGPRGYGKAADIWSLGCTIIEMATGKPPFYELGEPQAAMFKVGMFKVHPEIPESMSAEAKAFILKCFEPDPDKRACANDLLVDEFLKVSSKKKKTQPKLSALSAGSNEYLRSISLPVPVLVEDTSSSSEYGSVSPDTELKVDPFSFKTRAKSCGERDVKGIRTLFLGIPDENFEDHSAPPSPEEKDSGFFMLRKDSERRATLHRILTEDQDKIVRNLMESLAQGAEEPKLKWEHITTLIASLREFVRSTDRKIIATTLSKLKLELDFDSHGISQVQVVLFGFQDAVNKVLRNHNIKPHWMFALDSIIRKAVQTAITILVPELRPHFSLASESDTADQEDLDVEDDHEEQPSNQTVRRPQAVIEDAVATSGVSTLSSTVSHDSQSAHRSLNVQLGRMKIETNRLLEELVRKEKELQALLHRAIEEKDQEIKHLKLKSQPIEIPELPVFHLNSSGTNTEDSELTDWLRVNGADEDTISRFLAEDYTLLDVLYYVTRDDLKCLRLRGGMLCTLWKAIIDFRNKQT
Text: ASK1 and ASK2 biochemical activities were also quantified using AlphaScreen technology which measures the degree of phosphorylation of a protein substrate (MKK7). AlphaScreen technology is based on the binding of a substrate to two types of beads, acceptor and donor. Binding to one bead is through the tag of the substrate protein. Binding of the second bead is through phosphospecific binding of antibody to the phosphosite of the substrate. This forms a sandwich, with the acceptor and donor beads in close proximity. When the donor beads are excited by light in the 680 nm range, a singlet oxygen is released and causes emission of light from the acceptor in the 620 nm range which can be detected using a suitable plate reader.
The phosphorylation site on MKK7 (Ser271/Thr275) is then recognised by a phosphospecific antibody. The phosphospecific antibody is bound to the AlphaScreen acceptor beads through a Protein-A interaction. Phosphorylation of MKK7 by ASK1 or ASK2 subsequently facilitates the bringing together of the donor and acceptor beads into close proximity whereupon the transfer of the singlet oxygen leads to the generation of the AlphaScreen signal.
The assay was configured to run using the following conditions (final concentrations): 150 μM ATP; 400 nM MKK7; 0.8 nM ASK1 and 2 nM ASK2.
100 nL of test compound (starting concentration 6 μM, 11 concentrations with 3 fold serial dilutions) in 100% DMSO was added to low volume 384 well plates. 2.5 μl of ASK1 or ASK2 was added to each well except in the control wells to which 2.5 μl buffer was added. 2.5 μl of MKK7 solution was added to all wells. The plate was incubated for 60 minutes at room temperature. Protein-A acceptor beads and phospho-specific antibody were incubated for 30 minutes and then 2.5 μl of Protein-A acceptor beads/phospho-specific antibody mix (2.5 μg/ml acceptor beads final concentration and 1/800 antibody final dilution) was added to each well. The plate was incubated for 30 minutes at room temperature and then 2.5 μl of GSH donor beads (10 μg/ml […] final concentration) was added to each well. The plate was incubated for a further 60 minutes at room temperature, following which the plate was read on a Perkin Elmer Enspire plate reader.
Calculation of IC50 data, curves and QC analysis were made by using Excel tools and GraphPadPrism software, v. 5.03. Briefly, individual concentration-effect curves were generated by plotting the logarithm of the tested concentration of tested compounds (X) vs. corresponding percent inhibition values (Y) using least squares (ordinary) fit. Fitting equation used for IC50 calculation=log(inhibitor) vs. response−Variable slope (four parameters).
In the case of `Cc1cnc(N)cc1C(=O)NC1CCN(c2ncnc3[nH]cc(C)c23)CC1` [Compound 2, 2-amino-5-methyl-N-[1-(5-methyl-7H-pyrrolo[2,3-d]pyrimidin-4-yl)-4-piperidyl]pyridine-4-carboxamide], the “Inhibition (pIC50) ASK1” value is reported as 8.9/—.
With `Nc1cc(C(=O)NC2CCN(c3ncnc4[nH]cc(Cl)c34)CC2)c(F)cn1` [Compound 5, 2-amino-N-[1-(5-chloro-7H-pyrrolo[2,3-d]pyrimidin-4-yl)-4-piperidyl]-5-fluoro-pyridine-4-carboxamide] the “Inhibition (pIC50) ASK1” value was 8.8/—.
`Nc1cc(C(=O)NC2CCN(c3ncnc4[nH]cc(Cl)c34)CC2)ccn1` [Compound 4, 2-amino-N-[1-(5-chloro-7H-pyrrolo[2,3-d]pyrimidin-4-yl)-4-piperidyl]pyridine-4-carboxamide] was tested, and the “Inhibition (pIC50) ASK1” value was 9.4.
`Cc1c[nH]c2ncnc(N3CCC(NC(=O)c4cc(N)ncc4F)CC3)c12` [Compound 1, 2-amino-5-fluoro-N-[1-(5-methyl-7H-pyrrolo[2,3-d]pyrimidin-4-yl)-4-piperidyl]pyridine-4-carboxamide] was tested, and the “Inhibition (pIC50) ASK1” value was 8.72.
In the case of `Nc1cc(C(=O)NC2CCN(c3ccnc4[nH]cc(Cl)c34)CC2)c(F)cn1` [Compound 7, 2-amino-N-[1-(3-chloro-1H-pyrrolo[2,3-b]pyridin-4-yl)-4-piperidyl]-5-fluoro-pyridine-4-carboxamide], the “Inhibition (pIC50) ASK1” value is reported as 8.24/—^.
With `Cc1c[nH]c2ncc(C#N)c(N3CCC(NC(=O)c4cc(N)ncc4F)CC3)c12` [Compound 6, 2-amino-N-[1-(5-cyano-3-methyl-1H-pyrrolo[2,3-b]pyridin-4-yl)-4-piperidyl]-5-fluoro-pyridine-4-carboxamide] the “Inhibition (pIC50) ASK1” value was 8.98/—^.
For `Cc1c[nH]c2ncnc(N3CCC(NC(=O)c4cc(N)ncc4Cl)CC3)c12` [Compound 3, 2-amino-5-chloro-N-[1-(5-methyl-7H-pyrrolo[2,3-d]pyrimidin-4-yl)-4-piperidyl]-pyridine-4-carboxamide], the “Inhibition (pIC50) ASK1” value was 8.7.
